Molecular target: NEP-TC (Solanum betaceum, UniProt I1W0V3)
Experiment: coupled colorimetric SAM methyltransferase assay (SAH production, […] nm)
Format: biochemical
Conditions: methyl donor; co-substrate rRNA or total RNA from non-embryogenic calli

Sequence of NEP-TC (I1W0V3 1-221): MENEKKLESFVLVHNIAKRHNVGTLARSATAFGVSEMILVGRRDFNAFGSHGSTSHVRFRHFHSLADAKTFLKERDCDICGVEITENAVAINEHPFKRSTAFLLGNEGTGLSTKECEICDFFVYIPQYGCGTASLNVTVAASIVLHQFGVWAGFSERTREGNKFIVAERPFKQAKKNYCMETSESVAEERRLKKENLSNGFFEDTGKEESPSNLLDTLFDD

With C[S+](CC[C@H](N)C(=O)O)C[C@H]1O[C@@H](n2cnc3c(N)ncnc32)[C@H](O)[C@@H]1O (stereo partly shown) [SAM] the “coupled colorimetric SAM methyltransferase assay (SAH production, 510 nm)” value was “production of SAH in SAM-dependent methylation reactions”.

From PMC6459958, “NEP-TC a rRNA Methyltransferase Involved on Somatic Embryogenesis of Tamarillo (Solanum betaceum Cav.)” (Frontiers in Plant Science, 2019)
